Test results from US9115129B2, “Substituted pyrido[2,3-B]pyrazines as IP receptor agonists” (Novartis AG, priority 2012, dated 2015).

What follows are compounds tested against T1, IP receptor (Homo sapiens, UniProt P43119) (assay: cAMP accumulation in CHO cells stably expressing the IP receptor (CHO-IP), Perkin Elmer AlphaScreen assay). Settings: agonist activity, 1 hour at room temperature.
T1 construct: expressed in transfected cells; host or cells: CHO cells stably expressing the IP receptor (CHO-IP)
T1 sequence (P43119 whole entry): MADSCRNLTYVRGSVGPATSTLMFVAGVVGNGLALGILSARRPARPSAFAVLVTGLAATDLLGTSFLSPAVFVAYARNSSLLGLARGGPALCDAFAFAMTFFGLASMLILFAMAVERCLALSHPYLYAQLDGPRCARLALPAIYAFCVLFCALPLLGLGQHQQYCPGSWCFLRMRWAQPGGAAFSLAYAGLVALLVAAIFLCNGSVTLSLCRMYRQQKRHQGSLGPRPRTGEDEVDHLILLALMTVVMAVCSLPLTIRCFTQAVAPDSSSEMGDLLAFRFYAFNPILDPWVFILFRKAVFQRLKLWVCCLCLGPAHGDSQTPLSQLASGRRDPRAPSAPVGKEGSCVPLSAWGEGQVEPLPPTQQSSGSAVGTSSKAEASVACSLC
Type: cell-based
Experimental: Activity of compounds at the IP receptor (IP receptor) is assessed by measuring cAMP accumulation in CHO cells stably expressing the IP receptor (CHO-IP) using the Perkin Elmer AlphaScreen assay. This technology measures the endogenous production of cAMP, in a non-radioactive luminescence proximity homogenous assay. A biological reaction occurs between streptavidin coated donor beads, biotinylated cAMP and anti-cAMP acceptor beads, bringing the donor and acceptor beads close enough together so that upon excitation a fluorescence signal is produced. On production of endogenous cAMP, competition between the biotinylated cAMP and cellular-derived cAMP causes a reduction in the fluorescent signal. The reduction in signal is proportional to the amount of cAMP being produced, thus it is possible to quantify the amount of cAMP being produced on stimulation with agonist.
Test and reference compounds are prepared at 100× [final] in 100% DMSO, and diluted 1:3 using a Biomek Fx (Beckman Coulter). This is followed by an intermediate dilution to give 5× [final] in assay buffer (HBSS containing 5 mM HEPES, 0.1% (w/v) BSA). 5 μL of 5× [final] test compounds, reference compounds and buffer/DMSO control are then transferred to a 384-well white OptiPlate, containing 20 μL CHO-IP cell suspension (15,000 cells/well, prepared from frozen), and plate is incubated at room temperature for 1 hour. A cAMP standard curve is constructed for each experiment (concentration range of 10000 nM to 0.001 nM, in assay buffer) and 25 μL of each concentration added to the last two columns of the assay plate. The incubation is terminated by the addition of lysis buffer (dH2O; 0.3% (v v^−1) Tween-20) containing 20 units mL^−1 streptavidin coated donor beads and biotinylated cAMP (pre-incubated for 30 minutes) and 20 units mL^−1 anti-cAMP acceptor beads, which are added to the lysis buffer just before addition to the assay plate. The assay plate is then incubated at room temperature in the dark, for 60 minutes with gentle shaking, and read on the Envision plate reader (Perkin Elmer).
The raw data of the reference compounds, test compounds and controls are converted into cAMP concentrations, using the cAMP standard curve, in Graph Pad Prism (Graph Pad Software Inc). EC50 as well as maximal values of the agonist curves are determined using a 4-parameter logistic equation. The % maximum response values of all test compounds are determined using the top of the treprostinil concentration-response curve.
Work on `Cc1ccc(-c2nc3c(nc2-c2ccc(C)cc2)N(CCCCCCC(=O)N(C)O)CCC3)cc1` [Example 12.8, 7-(2,3-Di-p-tolyl-7,8-dihydropyrido[2,3-b]pyrazin-5(6H)-yl)-N-hydroxy-N-methylheptanamide] yielded an EC50 of 8 nM. `Cc1ccc(-c2nc3c(nc2-c2ccc(C)cc2)N(CCCCCCC(=O)NO)CCC3)cc1` [Example 12.9, 7-(2,3-Di-p-tolyl-7,8-dihydropyrido[2,3-b]pyrazin-5(6H)-yl)-N-hydroxyheptanamide] was tested, and the EC50 was 0.4 nM. With `Cc1ccc(-c2nc3c(nc2-c2ccc(C)cc2)N(CCCCCC(=O)NO)CCC3)cc1` [Example 12.10, 6-(2,3-Di-p-tolyl-7,8-dihydropyrido[2,3-b]pyrazin-5(6H)-yl)-N-hydroxyhexanamide] the EC50 was 55.6 nM. With `Cc1ccc(-c2nc3c(nc2-c2ccc(C)cc2)N(CCCCCCC(=O)NS(C)(=O)=O)CCC3)cc1` [Example 13.4, 7-(2,3-Di-p-tolyl-7,8-dihydropyrido[2,3-b]pyrazin-5(6H)-yl)-N-(methylsulfonyl) heptanamide] the EC50 was 0.7 nM. Work on `Cc1ccc(-c2nc3c(nc2-c2ccc(C)cc2)N(CCCCCCC(=O)NS(=O)(=O)C(C)C)CCC3)cc1` [Example 13.5, 7-(2,3-Di-p-tolyl-7,8-dihydropyrido[2,3-b]pyrazin-5(6H)-yl)-N-(isopropylsulfonyl) heptanamide] yielded an EC50 of 5 nM. `Cc1ccc(-c2nc3c(nc2-c2ccc(C)cc2)N(CCCCCCC(=O)O)CC(N2CCCCC2)C3)cc1` (centres unmarked) [Example 14] showed an EC50 of 2.7 nM. For `Cc1ccc(-c2nc3c(nc2-c2ccc(C)cc2)C(C)(O)CCN3CCCCCCC(=O)O)cc1` (centres unmarked) [Example 16, 7-(8-Hydroxy-8-methyl-2,3-di-p-tolyl-7,8-dihydropyrido[2,3-b]pyrazin-5(6H)-yl)heptanoic acid], the EC50 was 0.4 nM. With “(R)-6-(2,3-di-p-tolyl-5,6,7,8-tetrahydropyrido[2,3-b]pyrazin-6-yl)hexanoic acid or (S)-6-(2,3-di-p-tolyl-5,6,7,8-tetrahydropyrido[2,3-b]pyrazin-6-yl)hexanoic acid [1(i)]” the EC50 was 0.9 nM.
